Test results taken from patent US7057048B2, “Androgen receptor antagonists” (Warner Lambert Company LLC, priority 2003, dated 2006).

What follows are compounds tested against T1, androgen receptor (Homo sapiens, UniProt P10275) (assay: AR Antagonist Cell Assay (MMTV-luciferase reporter, DHT-stimulated)). Conditions: MDA-MB453-MMTV clone 54-19 cells, inhibition of induction by 100 pM DHT, 17 hr.
T1 sequence (P10275 1-920 Q868H): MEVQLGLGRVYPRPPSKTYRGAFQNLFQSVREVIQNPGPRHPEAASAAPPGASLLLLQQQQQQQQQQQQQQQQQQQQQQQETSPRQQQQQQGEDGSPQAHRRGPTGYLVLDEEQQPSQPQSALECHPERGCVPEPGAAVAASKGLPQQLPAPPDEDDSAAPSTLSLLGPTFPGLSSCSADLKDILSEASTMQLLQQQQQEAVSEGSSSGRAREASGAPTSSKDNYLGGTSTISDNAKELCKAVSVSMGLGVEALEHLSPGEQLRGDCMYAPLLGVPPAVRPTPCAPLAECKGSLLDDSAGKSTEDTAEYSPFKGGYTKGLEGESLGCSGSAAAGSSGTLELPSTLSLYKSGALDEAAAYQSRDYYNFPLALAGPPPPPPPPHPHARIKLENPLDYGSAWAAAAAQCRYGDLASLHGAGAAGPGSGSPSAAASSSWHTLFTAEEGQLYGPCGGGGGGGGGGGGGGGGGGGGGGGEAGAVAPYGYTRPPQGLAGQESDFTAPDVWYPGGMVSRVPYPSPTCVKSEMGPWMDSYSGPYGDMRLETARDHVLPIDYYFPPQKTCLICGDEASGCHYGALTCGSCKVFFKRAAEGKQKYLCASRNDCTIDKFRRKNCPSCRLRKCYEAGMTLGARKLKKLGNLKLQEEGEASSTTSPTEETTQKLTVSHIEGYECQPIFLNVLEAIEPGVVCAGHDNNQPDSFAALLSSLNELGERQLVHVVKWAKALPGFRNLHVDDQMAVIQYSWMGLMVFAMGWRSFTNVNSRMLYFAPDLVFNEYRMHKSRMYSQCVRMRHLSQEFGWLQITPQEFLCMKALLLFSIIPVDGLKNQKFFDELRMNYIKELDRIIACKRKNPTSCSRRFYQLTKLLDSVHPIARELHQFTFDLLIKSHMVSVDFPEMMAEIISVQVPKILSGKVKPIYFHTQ
Format: cell-based
Experimental: The compounds ability to antagonize the effects of androgen on the androgen receptor were determined in the protocol described immediately below.
Experimental Procedure for AR Antagonist Cell Assay
Cell line: MDA-MB453-MMTV clone 54-19. This cell line is a stable transfected cell line with MDA-MB453 cell background (human breast tumor cell expressing high level of androgen receptor). A MMTV minimal promoter containing ARE was first cloned in front of a firefly luciferase reporter gene. Then the cascade was cloned into transfection vector pUV120puro. Electroporation method was used for transfecting MDA-MB-453 cell. Puromycin resistant stable cell line was selected.
Cell Culture Media and Reagents:
Culture medium: DMEM (high glucose, Gibco cat #: 11960-044), 10% FBS, and 1% L-glutamine
Plating medium: DMEM (phenol red free), 10% charcoal treated HyClone serum, 1% L-glutamine
Assay medium: DMEM (phenol red free), 1% charcoal treated HyClone serum, 1% L-glutamine, and 1% penicillin/streptomycin
3×luciferase buffer: 2% beta-mercaptoethanol, 0.6% ATP, 0.0135% luciferine in cell lysis buffer
• 1. Cells are maintained in culture medium, splitting cells when they reach 80–90% confluence • 2. To test compounds, 10,000 cells/well are plated to opaque 96 cell culture plate in 100 ul/well plating medium, culture for overnight at 37° C. in cell culture incubator • 3. Carefully remove plating medium, then add 80 ul/well of pre-warmed assay medium, add 10 ul/well testing compound (final concentration at 10 uM or 1 uM), incubate at 37° C. for 30 minutes • 4. Add 10 ul/well freshly prepared DHT (final concentration at 100 pM) to each well, incubate at 37° C. for 17 hr (overnight) • 5. Add 50 ul/well 3×luciferase buffer, incubate at room temperature for 5 minutes, then count on Luminometer
The fold induction over background by 100 pM DHT in the absence of testing compounds is standardized as 100% and experimental result is expressed as percentage of inhibition by testing compounds.
With CCOCCN1CCN(S(=O)(=O)c2ccc(Cc3ccc4oc(=O)cc(C(F)(F)F)c4c3)cc2)CC1 [Example 62, 6-{4-[4-(2-Ethoxyethyl)piperazine-1-sulfonyl]benzyl}-4-trifluoromethylchromen-2-one] the IC50 was > 10 µM. CCOC(=O)C1CCN(S(=O)(=O)c2ccc(Cc3ccc4[nH]c(=O)cc(C(F)(F)F)c4c3)cc2)CC1 [Example 4] was tested, and the IC50 was > 10 µM. For COC(=O)[C@@H]1CCCN1S(=O)(=O)c1ccc(Cc2ccc3oc(=O)cc(C(F)(F)F)c3c2)cc1 [Example 41, 1-[4-(2-Oxo-4-trifluoromethyl-2H-chromen-6-ylmethyl)-benzenesulfonyl]pyrrolidine-2-carboxylic acidmethyl ester], the IC50 was > 10 µM. For O=c1cc(C(F)(F)F)c2cc(Cc3ccc(S(=O)(=O)N4CCC(O)(c5cccs5)CC4)cc3)ccc2o1 [Example 33, 6-[4-(4-Hydroxy-4-thiophen-2-ylpiperidine-1-sulfonyl)benzyl]-4-trifluoromethylchromen-2-one], the IC50 was 8.6 µM. In the case of O=c1cc(C(F)(F)F)c2cc(Cc3ccc(S(=O)(=O)N4CCSC4)cc3)ccc2[nH]1 [Example 12, 6-[4-(Thiazolidine-3-sulfonyl)benzyl]-4-trifluoromethyl-1H-quinolin-2-one], the IC50 is reported as > 10 µM. Compound O=c1cc(C(F)(F)F)c2cc(Cc3ccc(S(=O)(=O)N4CCCC5CCCCC54)cc3)ccc2o1 (stereo not shown) [Example 53, 6-[4-(Octahydroquinoline-1-sulfonyl)benzyl]-4-trifluoromethylchromen-2-one] has an IC50 of 4.2 µM. In the case of CC1CCCCN1S(=O)(=O)c1ccc(Cc2ccc3oc(=O)cc(C(F)(F)F)c3c2)cc1 (stereo not shown) [Example 58, 6-[4-(2-Methylpiperidine-1-sulfonyl)benzyl]-4-trifluoromethylchromen-2-one], the IC50 is reported as 9.8 µM. With O=c1cc(C(F)(F)F)c2cc(Cc3ccc(S(=O)(=O)N4CCC(N5CCCC5)CC4)cc3)ccc2o1 [Example 30, 6-[4-(4-Pyrrolidin-1-ylpiperidine-1-sulfonyl)benzyl]-4-trifluoromethylchromen-2-one] the IC50 was > 10 µM. With O=c1cc(C(F)(F)F)c2cc(Cc3ccc(S(=O)(=O)N4CCC4)cc3)ccc2[nH]1 [Example 25, 6-[4-(Azetidine-1-sulfonyl)benzyl]-4-trifluoromethyl-1H-quinolin-2-one] the IC50 was 2.9 µM. For O=c1cc(C(F)(F)F)c2cc(Cc3ccc(S(=O)(=O)N4CCCCCC4)cc3)ccc2[nH]1 [Example 21, 6-[4-(Azepane-1-sulfonyl)benzyl]-4-trifluoromethyl-1H-quinolin-2-one], the IC50 was 9.2 µM. In the case of O=c1cc(C(F)(F)F)c2cc(Cc3ccc(S(=O)(=O)N4CCCCC4c4cccnc4)cc3)ccc2o1 (stereo not shown) [Example 48, 6-[4-(3,4,5,6-Tetrahydro-2H-[2,3′]bipyridinyl-1-sulfonyl)benzyl]-4-trifluoromethylchromen-2-one], the IC50 is reported as 8.9 µM. Compound O=c1cc(C(F)(F)F)c2cc(Cc3ccc(S(=O)(=O)N4CCN(CCO)CC4)cc3)ccc2o1 [Example 43, 6-{4-[4-(2-Hydroxyethyl)piperazine-1-sulfonyl]benzyl}-4-trifluoromethylchromen-2-one] has an IC50 of 8.9 µM. In the case of CC1CCCCN1S(=O)(=O)c1ccc(Cc2ccc3[nH]c(=O)cc(C(F)(F)F)c3c2)cc1 (stereo not shown) [Example 22, 6-[4-(2-Methylpiperidine-1-sulfonyl)benzyl]-4-trifluoromethyl-1H-quinolin-2-one], the IC50 is reported as > 10 µM. In the case of O=c1cc(C(F)(F)F)c2cc(Cc3ccc(S(=O)(=O)N4CCCC4)cc3)ccc2[nH]1 [Example 20, 6-[4-(Pyrrolidine-1-sulfonyl)benzyl]-4-trifluoromethyl-1H-quinolin-2-one], the IC50 is reported as > 10 µM. With O=c1cc(C(F)(F)F)c2cc(Cc3ccc(S(=O)(=O)N4CCN(CCO)CC4)cc3)ccc2[nH]1 [Example 10, 6-{4-[4-(2-Hydroxyethyl)piperazine-1-sulfonyl]benzyl}-4-trifluoromethyl-1H-quinolin-2-one] the IC50 was > 10 µM. Compound O=c1cc(C(F)(F)F)c2cc(Cc3ccc(S(=O)(=O)N4CCCCC4CO)cc3)ccc2o1 (stereo not shown) [Example 37, 6-[4-(2-Hydroxymethyl-piperidine-1-sulfonyl)benzyl]-4-trifluoromethylchromen-2-one] has an IC50 of 5.3 µM. CC1CN(S(=O)(=O)c2ccc(Cc3ccc4[nH]c(=O)cc(C(F)(F)F)c4c3)cc2)CC(C)O1 (stereo not shown) [Example 24, 6-[4-(2,6-Dimethylmorpholine-4-sulfonyl)benzyl]-4-trifluoromethyl-1H-quinolin-2-one] was tested, and the IC50 was 6.5 µM. O=c1cc(C(F)(F)F)c2cc(Cc3ccc(S(=O)(=O)N4CCCc5ccccc54)cc3)ccc2o1 [Example 65, 6-[4-(3,4-Dihydro-2H-sulfonyl)benzyl]-4-trifluoromethylchromen-2-one] was tested, and the IC50 was 5.9 µM. O=C(CN1CCN(S(=O)(=O)c2ccc(Cc3ccc4oc(=O)cc(C(F)(F)F)c4c3)cc2)CC1)N1CCCC1 [Example 47, 6-{4-[4-(2-Oxo-2-pyrrolidin-1-ylethyl)piperazine-1-sulfonyl]benzyl}-4-trifluoromethylchromen-2-one] was tested, and the IC50 was > 10 µM. CC1CN(S(=O)(=O)c2ccc(Cc3ccc4oc(=O)cc(C(F)(F)F)c4c3)cc2)CC(C)O1 (stereo not shown) [Example 60, 6-[4-(2,6-Dimethylmorpholine-4-sulfonyl)benzyl]-4-trifluoromethylchromen-2-one] showed an IC50 of 0.52 µM. In the case of O=c1cc(C(F)(F)F)c2cc(Cc3ccc(S(=O)(=O)N4CCSC4)cc3)ccc2o1 [Example 46, 6-[4-(Thiazolidine-3-sulfonyl)benzyl]-4-trifluoromethylchromen-2-one], the IC50 is reported as > 10 µM. In the case of O=c1cc(C(F)(F)F)c2cc(Cc3ccc(S(=O)(=O)N4CCCCC4CCO)cc3)ccc2[nH]1 (stereo not shown) [Example 17, 6-{4-[2-(2-Hydroxyethyl)piperidine-1-sulfonyl]benzyl}-4-trifluoromethyl-1H-quinolin-2-one], the IC50 is reported as > 10 µM. O=c1cc(C(F)(F)F)c2cc(Cc3ccc(S(=O)(=O)N4CCCC(CO)C4)cc3)ccc2o1 (stereo not shown) [Example 45, 6-[4-(3-Hydroxymethyl-piperidine-1-sulfonyl)benzyl]-4-trifluoromethylchromen-2-one] was tested, and the IC50 was 7.6 µM. With O=c1cc(C(F)(F)F)c2cc(Cc3ccc(S(=O)(=O)N4CCN(CCOCCO)CC4)cc3)ccc2o1 [Example 42, 6-(4-{4-[2-(2-Hydroxyethoxy)ethyl]-piperazine-1-sulfonyl}benzyl)-4-trifluoromethylchromen-2-one] the IC50 was > 10 µM. CCOC(=O)N1CCN(S(=O)(=O)c2ccc(Cc3ccc4oc(=O)cc(C(F)(F)F)c4c3)cc2)CC1 [Example 29, 4-[4-(2-Oxo-4-trifluoromethyl-2H-chromen-6-ylmethyl)-benzenesulfonyl]piperazine-1-carboxylic acid ethylester] was tested, and the IC50 was > 10 µM. O=c1cc(C(F)(F)F)c2cc(Cc3ccc(S(=O)(=O)N4Cc5ccccc5C4)cc3)ccc2o1 [Example 34, 6-[4-(1,3-Dihydroisoindole-2-sulfonyl)benzyl]-4-trifluoromethylchromen-2-one] gave an IC50 of 4.5 µM. For COC(=O)[C@@H]1CCCN1S(=O)(=O)c1ccc(Cc2ccc3[nH]c(=O)cc(C(F)(F)F)c3c2)cc1 [Example 9, 1-[4-(2-Oxo-4-trifluoromethyl-1,2-dihydroquinolin-6-ylmethyl)benzenesulfonyl]-pyrrolidine-2-carboxylicacid methyl ester], the IC50 was 5.4 µM. With O=c1cc(C(F)(F)F)c2cc(Cc3ccc(S(=O)(=O)N4CCN(CCCN5CCCCC5)CC4)cc3)ccc2o1 [Example 38, 6-{4-[4-(3-Piperidin-1-ylpropyl)piperazine-1-sulfonyl]benzyl}-4-trifluoromethylchromen-2-one] the IC50 was > 10 µM.
